In patent US20210045385A1, “PYRIDAZINONE-SUBSTITUTED KETOXIMES AS HERBICIDES” (FMC Corporation, priority 2018, published 2021):

How the values were obtained:
Assay type in all cases: in vivo
[1] = test system: Italian ryegrass (Lolium multiflorum); test: Test A postemergence, visual plant response rating; details: for Ryegrass, Italian plant response rating (0 to 100 scale): 500 g ai/ha, postemergence, 0 is no effect, 100 is complete control; for Ryegrass, Italian plant response rating: Postemergence, 125 g ai/ha, 0 to 100 scale (0 no effect, 100 complete control)
In short: (§1)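 Preemergence: seeds in loam/sand blend given directed soil spray of compound in non-phytotoxic solvent with surfactant. Postemergence: plants 2–10 cm, one- to two-leaf stage, sprayed with same formulation. Visual injury rated vs untreated controls after ~10 days in greenhouse, 0 (no effect) to 100 (complete control).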

[2] = test system: galium (catchweed bedstraw, Galium aparine); test: Test A postemergence, visual plant response rating; details: for Galium plant response rating (0 to 100 scale): 500 g ai/ha, postemergence, 0 is no effect, 100 is complete control; for Galium plant response rating: Postemergence, 125 g ai/ha, 0 to 100 scale (0 no effect, 100 complete control)
In short: as §1

[3] = test system: ragweed (common ragweed, Ambrosia elatior); test: Test A postemergence, visual plant response rating; details: for Ragweed plant response rating (0 to 100 scale): 500 g ai/ha, postemergence, 0 is no effect, 100 is complete control; for Ragweed plant response rating: Postemergence, 125 g ai/ha, 0 to 100 scale (0 no effect, 100 complete control)
In short: as §1

corn (Zea mays) = test: Test A postemergence, visual plant response rating; details: for Corn plant response rating (0 to 100 scale): 500 g ai/ha, postemergence, 0 is no effect, 100 is complete control; for Corn plant response rating: Postemergence, 125 g ai/ha, 0 to 100 scale (0 no effect, 100 complete control)
In short: as §1

[4] = test system: foxtail, green (green foxtail, Setaria viridis); test: Test A postemergence, visual plant response rating; details: for Foxtail, Green plant response rating (0 to 100 scale): 500 g ai/ha, postemergence, 0 is no effect, 100 is complete control; for Foxtail, Green plant response rating: Postemergence, 125 g ai/ha, 0 to 100 scale (0 no effect, 100 complete control)
In short: as §1

[5] = test system: barnyardgrass (Echinochloa crus-galli); test: Test A postemergence, visual plant response rating; details: for Barnyardgrass plant response rating (0 to 100 scale): 500 g ai/ha, postemergence, 0 is no effect, 100 is complete control; for Barnyardgrass plant response rating: Postemergence, 125 g ai/ha, 0 to 100 scale (0 no effect, 100 complete control)
In short: as §1

[6] = test system: wheat (Triticum aestivum); test: Test A postemergence, visual plant response rating; details: for Wheat plant response rating (0 to 100 scale): 500 g ai/ha, postemergence, 0 is no effect, 100 is complete control; for Wheat plant response rating: Postemergence, 125 g ai/ha, 0 to 100 scale (0 no effect, 100 complete control)
In short: as §1

[7] = test system: blackgrass (Alopecurus myosuroides); test: Test A postemergence, visual plant response rating; details: for Blackgrass plant response rating (0 to 100 scale): 500 g ai/ha, postemergence, 0 is no effect, 100 is complete control; for Blackgrass plant response rating: Postemergence, 125 g ai/ha, 0 to 100 scale (0 no effect, 100 complete control)
In short: as §1

kochia (Kochia scoparia) [8] = test: Test A postemergence, visual plant response rating; details: for Kochia plant response rating (0 to 100 scale): 500 g ai/ha, postemergence, 0 is no effect, 100 is complete control; for Kochia plant response rating: Postemergence, 125 g ai/ha, 0 to 100 scale (0 no effect, 100 complete control)
In short: as §1

[9] = test system: pigweed (Amaranthus retroflexus); test: Test A postemergence, visual plant response rating; details: for Pigweed plant response rating (0 to 100 scale): 500 g ai/ha, postemergence, 0 is no effect, 100 is complete control; for Pigweed plant response rating: Postemergence, 125 g ai/ha, 0 to 100 scale (0 no effect, 100 complete control)
In short: as §1

[10] = test system: ducksalad (Heteranhera limosa); test: Test B flooded paddy test, visual plant response rating; details: 250 g ai/ha, Flood, applied to paddy water, 2-leaf stage, evaluated after 13 to 15 days
In short: (§2)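 Greenhouse paddy conditions applied: two-leaf plants, a 3 cm flood above the soil surface maintained throughout, and compound added to the water rather than the foliage. Plants were judged visually against controls at 13 to 15 days.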

rice (Oryza sativa) = test: as above; details: 250 g ai/ha, Flood, applied to paddy water, 2-leaf stage, evaluated after 13 to 15 days
In short: as §2

[11] = test system: barnyardgrass (Echinochloa crus-galli); test: as above; details: 250 g ai/ha, Flood, applied to paddy water, 2-leaf stage, evaluated after 13 to 15 days
In short: as §2

[12] = test system: sedge, umbrella (small-flower umbrella sedge, Cyperus difformis); test: as above; details: 250 g ai/ha, Flood, applied to paddy water, 2-leaf stage, evaluated after 13 to 15 days
In short: as §2

[13] = test system: Italian ryegrass (Lolium multiflorum); test: Test A preemergence, visual plant response rating; details: approx. 10 days
In short: as §1

[14] = test system: ragweed (common ragweed, Ambrosia elatior); test: Test A preemergence, visual plant response rating; details: approx. 10 days
In short: as §1

[15] = test system: foxtail, green (green foxtail, Setaria viridis); test: Test A preemergence, visual plant response rating; details: approx. 10 days
In short: as §1

[16] = test system: barnyardgrass (Echinochloa crus-galli); test: Test A preemergence, visual plant response rating; details: approx. 10 days
In short: as §1

kochia (Kochia scoparia) [17] = test: Test A preemergence, visual plant response rating; details: approx. 10 days
In short: as §1

[18] = test system: pigweed (Amaranthus retroflexus); test: Test A preemergence, visual plant response rating; details: approx. 10 days
In short: as §1

## CO/N=C(\c1cccc(C)c1C)c1c(O)c(C)nn(C)c1=O [Compound 22]
[1]
  Ryegrass, Italian plant response rating (0 to 100 scale): 30
  Ryegrass, Italian plant response rating: 10
[2]
  Galium plant response rating (0 to 100 scale): 60
  Galium plant response rating: 60
[3]
  Ragweed plant response rating (0 to 100 scale): 50
  Ragweed plant response rating: 40
Corn (Zea mays)
  Corn plant response rating (0 to 100 scale): 0
  Corn plant response rating: 0
[4]
  Foxtail, Green plant response rating (0 to 100 scale): 0
  Foxtail, Green plant response rating: 0
[5]
  Barnyardgrass plant response rating (0 to 100 scale): 10
  Barnyardgrass plant response rating: 0
[6]
  Wheat plant response rating (0 to 100 scale): 0
  Wheat plant response rating: 0
[7]
  Blackgrass plant response rating (0 to 100 scale): 40
  Blackgrass plant response rating: 10
Kochia (Kochia scoparia) [8]
  Kochia plant response rating (0 to 100 scale): 30
  Kochia plant response rating: 20
[9]
  Pigweed plant response rating (0 to 100 scale): 50
  Pigweed plant response rating: 30
[10]
  Plant response rating, Ducksalad (0 to 100 scale, 0 is no effect, 100 is complete control): 0
Rice (Oryza sativa)
  Plant response rating, Rice (0 to 100 scale, 0 is no effect, 100 is complete control): 0
[11]
  Plant response rating, Barnyardgrass (0 to 100 scale, 0 is no effect, 100 is complete control): 0
[12]
  Plant response rating, Sedge, Umbrella (0 to 100 scale, 0 is no effect, 100 is complete control): 0
[13]; 125 g ai/ha Preemergence
  Ryegrass, Italian plant response rating (0 to 100 scale): 10
[13]; 500 g ai/ha Preemergence
  Ryegrass, Italian plant response rating (0 to 100 scale): 30
[14]; 125 g ai/ha Preemergence
  Ragweed plant response rating (0 to 100 scale): 50
[14]; 500 g ai/ha Preemergence
  Ragweed plant response rating (0 to 100 scale): 90
[15]; 125 g ai/ha Preemergence
  Foxtail, Green plant response rating (0 to 100 scale): 0
[15]; 500 g ai/ha Preemergence
  Foxtail, Green plant response rating (0 to 100 scale): 0
[16]; 125 g ai/ha Preemergence
  Barnyardgrass plant response rating (0 to 100 scale): 0
[16]; 500 g ai/ha Preemergence
  Barnyardgrass plant response rating (0 to 100 scale): 0
Kochia (Kochia scoparia) [17]; 125 g ai/ha Preemergence
  Kochia plant response rating (0 to 100 scale): 10
Kochia (Kochia scoparia) [17]; 500 g ai/ha Preemergence
  Kochia plant response rating (0 to 100 scale): 10
[18]; 125 g ai/ha Preemergence
  Pigweed plant response rating (0 to 100 scale): 30
[18]; 500 g ai/ha Preemergence
  Pigweed plant response rating (0 to 100 scale): 90

## CO/N=C(\c1c(O)c(C)nn(C)c1=O)c1cccc2ccccc12 [Compound 26]
[1]
  Ryegrass, Italian plant response rating (0 to 100 scale): 70
  Ryegrass, Italian plant response rating: 70
[2]
  Galium plant response rating (0 to 100 scale): 100
  Galium plant response rating: 90
[3]
  Ragweed plant response rating (0 to 100 scale): 100
  Ragweed plant response rating: 90
Corn (Zea mays)
  Corn plant response rating (0 to 100 scale): 30
  Corn plant response rating: 0
[4]
  Foxtail, Green plant response rating (0 to 100 scale): 80
  Foxtail, Green plant response rating: 60
[5]
  Barnyardgrass plant response rating (0 to 100 scale): 60
  Barnyardgrass plant response rating: 50
[6]
  Wheat plant response rating (0 to 100 scale): 10
  Wheat plant response rating: 0
[7]
  Blackgrass plant response rating (0 to 100 scale): 90
  Blackgrass plant response rating: 80
Kochia (Kochia scoparia) [8]
  Kochia plant response rating (0 to 100 scale): 90
  Kochia plant response rating: 80
[9]
  Pigweed plant response rating (0 to 100 scale): 90
  Pigweed plant response rating: 60
[10]
  Plant response rating, Ducksalad (0 to 100 scale, 0 is no effect, 100 is complete control): 0
Rice (Oryza sativa)
  Plant response rating, Rice (0 to 100 scale, 0 is no effect, 100 is complete control): 0
[11]
  Plant response rating, Barnyardgrass (0 to 100 scale, 0 is no effect, 100 is complete control): 0
[12]
  Plant response rating, Sedge, Umbrella (0 to 100 scale, 0 is no effect, 100 is complete control): 0
[13]; 125 g ai/ha Preemergence
  Ryegrass, Italian plant response rating (0 to 100 scale): 70
[13]; 500 g ai/ha Preemergence
  Ryegrass, Italian plant response rating (0 to 100 scale): 100
[14]; 125 g ai/ha Preemergence
  Ragweed plant response rating (0 to 100 scale): 90
[14]; 500 g ai/ha Preemergence
  Ragweed plant response rating (0 to 100 scale): 100
[15]; 125 g ai/ha Preemergence
  Foxtail, Green plant response rating (0 to 100 scale): 70
[15]; 500 g ai/ha Preemergence
  Foxtail, Green plant response rating (0 to 100 scale): 100
[16]; 125 g ai/ha Preemergence
  Barnyardgrass plant response rating (0 to 100 scale): 40
[16]; 500 g ai/ha Preemergence
  Barnyardgrass plant response rating (0 to 100 scale): 80
Kochia (Kochia scoparia) [17]; 125 g ai/ha Preemergence
  Kochia plant response rating (0 to 100 scale): 50
Kochia (Kochia scoparia) [17]; 500 g ai/ha Preemergence
  Kochia plant response rating (0 to 100 scale): 80
[18]; 125 g ai/ha Preemergence
  Pigweed plant response rating (0 to 100 scale): 100
[18]; 500 g ai/ha Preemergence
  Pigweed plant response rating (0 to 100 scale): 100

## CO/N=C(/c1cccc(Cl)c1)c1c(O)c(C)nn(C)c1=O [Compound 11, 4-[(Z)-(3-chlorophenyl)(methoxyimino)methyl]-5-hydroxy-2,6-dimethyl-3(2H)-pyridazinone]
[1]
  Ryegrass, Italian plant response rating (0 to 100 scale): 80
  Ryegrass, Italian plant response rating: 60
[3]
  Ragweed plant response rating (0 to 100 scale): 100
  Ragweed plant response rating: 80
Corn (Zea mays)
  Corn plant response rating (0 to 100 scale): 10
  Corn plant response rating: 0
[4]
  Foxtail, Green plant response rating (0 to 100 scale): 40
  Foxtail, Green plant response rating: 10
[5]
  Barnyardgrass plant response rating (0 to 100 scale): 10
  Barnyardgrass plant response rating: 10
[6]
  Wheat plant response rating (0 to 100 scale): 10
  Wheat plant response rating: 0
[7]
  Blackgrass plant response rating (0 to 100 scale): 70
  Blackgrass plant response rating: 30
Kochia (Kochia scoparia) [8]
  Kochia plant response rating (0 to 100 scale): 80
  Kochia plant response rating: 70
[9]
  Pigweed plant response rating (0 to 100 scale): 80
  Pigweed plant response rating: 40
[10]
  Plant response rating, Ducksalad (0 to 100 scale, 0 is no effect, 100 is complete control): 0
Rice (Oryza sativa)
  Plant response rating, Rice (0 to 100 scale, 0 is no effect, 100 is complete control): 0
[11]
  Plant response rating, Barnyardgrass (0 to 100 scale, 0 is no effect, 100 is complete control): 0
[12]
  Plant response rating, Sedge, Umbrella (0 to 100 scale, 0 is no effect, 100 is complete control): 0
[13]; 125 g ai/ha Preemergence
  Ryegrass, Italian plant response rating (0 to 100 scale): 60
[13]; 500 g ai/ha Preemergence
  Ryegrass, Italian plant response rating (0 to 100 scale): 80
[14]; 125 g ai/ha Preemergence
  Ragweed plant response rating (0 to 100 scale): 50
[14]; 500 g ai/ha Preemergence
  Ragweed plant response rating (0 to 100 scale): 50
[15]; 125 g ai/ha Preemergence
  Foxtail, Green plant response rating (0 to 100 scale): 0
[15]; 500 g ai/ha Preemergence
  Foxtail, Green plant response rating (0 to 100 scale): 70
[16]; 125 g ai/ha Preemergence
  Barnyardgrass plant response rating (0 to 100 scale): 0
[16]; 500 g ai/ha Preemergence
  Barnyardgrass plant response rating (0 to 100 scale): 40
Kochia (Kochia scoparia) [17]; 125 g ai/ha Preemergence
  Kochia plant response rating (0 to 100 scale): 10
Kochia (Kochia scoparia) [17]; 500 g ai/ha Preemergence
  Kochia plant response rating (0 to 100 scale): 80
[18]; 125 g ai/ha Preemergence
  Pigweed plant response rating (0 to 100 scale): 40
[18]; 500 g ai/ha Preemergence
  Pigweed plant response rating (0 to 100 scale): 100
